According to PubChem BioAssay AID256 (DTP/NCI, 2004):
Several values for one entry are separate records, joined by “and”; a condition that tells them apart may be missing. Equal entries are not always repeated. Inconclusive results and toxic doses are left out. How the source made its calls: active means survival T/C of 150% or more; inactive means T/C below 125% in these data.

Tested on: CD2F1 mice, L1210 leukemia ip, survival T/C
Experiment: NCI In Vivo Anticancer Drug Screen. Data for tumor model L1210 Leukemia (intraperitoneal) in CD2F1 (CDF1) mice
Conditions: endpoint: mean survival time, higher = longer survival
Procedure, shortened: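 Mice carrying a transplanted tumor received test compound or vehicle alone. The value is the measurement in the treated group divided by that in the vehicle-treated control group.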

[1] = dose: 100.0 mg/kg/injection, schedule: Q01DX009 (ip), vehicle: saline with Tween-80
[2] = dose: 200.0 mg/kg/injection, schedule: Q01DX009 (ip), vehicle: saline with Tween-80
[3] = dose: 400.0 mg/kg/injection, schedule: Q01DX009 (ip), vehicle: saline with Tween-80
[4] = dose: 100.0 mg/kg/injection, schedule: Q04DX003 (ip), vehicle: saline
[5] = dose: 200.0 mg/kg/injection, schedule: Q04DX003 (ip), vehicle: saline
[6] = dose: 400.0 mg/kg/injection, schedule: Q04DX003 (ip), vehicle: saline
[7] = dose: 100.0 mg/kg/injection, schedule: Q01DX001 (ip), vehicle: saline with Tween-80
[8] = dose: 200.0 mg/kg/injection, schedule: Q01DX001 (ip), vehicle: saline with Tween-80
[9] = dose: 400.0 mg/kg/injection, schedule: Q01DX001 (ip), vehicle: saline with Tween-80
[10] = dose: 100.0 mg/kg/injection, schedule: Q04DX003 (ip), vehicle: saline with Tween-80
[11] = dose: 200.0 mg/kg/injection, schedule: Q04DX003 (ip), vehicle: saline with Tween-80
[12] = dose: 400.0 mg/kg/injection, schedule: Q04DX003 (ip), vehicle: saline with Tween-80
[13] = dose: 100.0 mg/kg/injection, schedule: Q04DX002 (ip), vehicle: saline with Tween-80
[14] = dose: 200.0 mg/kg/injection, schedule: Q04DX002 (ip), vehicle: saline with Tween-80
[15] = dose: 400.0 mg/kg/injection, schedule: Q04DX002 (ip), vehicle: saline with Tween-80
[16] = dose: 100.0 mg/kg/injection, schedule: Q01DX001 (ip), vehicle: saline

Measured: T/C

NC(=O)N/N=C\c1ccc(O)cn1
inactive: [1] 93 % of control | [2] 93 % of control | [3] 92 % of control

COc1cc(C)ccc1C1=CCCCCC1
inactive: [4] 93 % of control | [5] 93 % of control | [6] 103 % of control

CCCCCCCCCCCCCCCC[N+]1(CCC)CCSCC1
inactive: [7] 102 % of control | [8] 110 % of control

CC(C)CC(Nc1sc([N+](=O)[O-])cc1[N+](=O)[O-])C(=O)O (stereo not drawn)
inactive: [7] 105 % of control | [8] 102 % of control | [9] 107 % of control

Cc1ccc(S(=O)(=O)OC2(c3cc(C(F)(F)F)cc(C(F)(F)F)c3)C3CCC2CC3)cc1 (stereo not drawn)
inactive: dose: 37.5 mg/kg/injection, schedule: Q04DX002 (ip), vehicle: saline with Tween-80 102 % of control | dose: 75.0 mg/kg/injection, schedule: Q04DX002 (ip), vehicle: saline with Tween-80 94 % of control | dose: 150.0 mg/kg/injection, schedule: Q04DX002 (ip), vehicle: saline with Tween-80 98 % of control | dose: 300.0 mg/kg/injection, schedule: Q04DX002 (ip), vehicle: saline with Tween-80 102 % of control

CN(C)c1nc(N)nc(-c2cc[n+]([O-])cc2)n1
inactive: dose: 100.0 mg/kg/injection, schedule: Q04DX002 (ip), vehicle: saline 103 % of control | dose: 200.0 mg/kg/injection, schedule: Q04DX002 (ip), vehicle: saline 88 % of control

COc1ccc(C=NC2CC(C)CCC2C)c(OC)c1 (stereo not drawn)
inactive: [1] 86 % of control | [10] 91 % of control | [2] 89 % of control | [11] 95 % of control | [3] 93 % of control | [12] 95 % of control

CN(C)CC(=O)c1ccc(O)c(O)c1
inactive: dose: 16.0 mg/kg/injection, schedule: Q03HX008 (ip), vehicle: saline 95 % of control | dose: 16.0 mg/kg/injection, schedule: Q03HX016 (ip), vehicle: saline 97 % of control | dose: 32.0 mg/kg/injection, schedule: Q03HX008 (ip), vehicle: saline 96 % of control | dose: 32.0 mg/kg/injection, schedule: Q03HX016 (ip), vehicle: saline 106 % of control | dose: 64.0 mg/kg/injection, schedule: Q01DX009 (sc), vehicle: saline 86 % of control | dose: 64.0 mg/kg/injection, schedule: Q03HX008 (ip), vehicle: saline 110 % of control | dose: 64.0 mg/kg/injection, schedule: Q03HX016 (ip), vehicle: saline 111 % of control | dose: 64.0 mg/kg/injection, schedule: Q04DX003 (ip), vehicle: saline 101 % of control | dose: 128.0 mg/kg/injection, schedule: Q01DX001 (oral), vehicle: saline 98 % of control | dose: 128.0 mg/kg/injection, schedule: Q01DX001 (sc), vehicle: saline 98 % of control | dose: 128.0 mg/kg/injection, schedule: Q01DX009 (oral), vehicle: saline 93 % of control | dose: 128.0 mg/kg/injection, schedule: Q01DX009 (sc), vehicle: saline 86 % of control | dose: 128.0 mg/kg/injection, schedule: Q03HX008 (ip), vehicle: saline 118 % of control | dose: 128.0 mg/kg/injection, schedule: Q03HX016 (ip), vehicle: saline 122 % of control | dose: 128.0 mg/kg/injection, schedule: Q04DX003 (ip), vehicle: saline 107 % of control | dose: 128.0 mg/kg/injection, schedule: Q08DX002 (ip), vehicle: saline 105 % of control | dose: 256.0 mg/kg/injection, schedule: Q01DX001 (oral), vehicle: saline 101 % of control | dose: 256.0 mg/kg/injection, schedule: Q01DX001 (sc), vehicle: saline 96 % of control | dose: 256.0 mg/kg/injection, schedule: Q01DX009 (oral), vehicle: saline 92 % of control | dose: 256.0 mg/kg/injection, schedule: Q01DX009 (sc), vehicle: saline 86 % of control | dose: 256.0 mg/kg/injection, schedule: Q04DX003 (ip), vehicle: saline 107 % of control | dose: 256.0 mg/kg/injection, schedule: Q08DX002 (ip), vehicle: saline 103 % of control | dose: 512.0 mg/kg/injection, schedule: Q01DX001 (oral), vehicle: saline 98 % of control | dose: 512.0 mg/kg/injection, schedule: Q01DX001 (sc), vehicle: saline 95 % of control | dose: 512.0 mg/kg/injection, schedule: Q01DX009 (oral), vehicle: saline 91 % of control | dose: 512.0 mg/kg/injection, schedule: Q01DX009 (sc), vehicle: saline 86 % of control | dose: 512.0 mg/kg/injection, schedule: Q04DX003 (ip), vehicle: saline 107 % of control | dose: 512.0 mg/kg/injection, schedule: Q08DX002 (ip), vehicle: saline 105 % of control | dose: 1024.0 mg/kg/injection, schedule: Q01DX001 (oral), vehicle: saline 96 % of control | dose: 1024.0 mg/kg/injection, schedule: Q01DX001 (sc), vehicle: saline 107 % of control | dose: 1024.0 mg/kg/injection, schedule: Q01DX009 (oral), vehicle: saline 93 % of control | dose: 1024.0 mg/kg/injection, schedule: Q08DX002 (ip), vehicle: saline 110 % of control

CCOC(=O)/C(C#N)=C/NC(N)=O
inactive: dose: 50.0 mg/kg/injection, schedule: Q01DX001 (ip), vehicle: Klucel (hydroxypropylcellulose) (HPC) 100 % of control | dose: 100.0 mg/kg/injection, schedule: Q01DX001 (ip), vehicle: Klucel (hydroxypropylcellulose) (HPC) 91 % of control and 92 % of control | dose: 200.0 mg/kg/injection, schedule: Q01DX001 (ip), vehicle: Klucel (hydroxypropylcellulose) (HPC) 103 % of control | dose: 400.0 mg/kg/injection, schedule: Q01DX001 (ip), vehicle: Klucel (hydroxypropylcellulose) (HPC) 88 % of control

CC(O)CN1CCOCC1 (stereo not drawn)
inactive: [1] 101 % of control | [2] 105 % of control | [3] 100 % of control

CC(=O)Nc1ccc2ccccc2c1
inactive: [10] 103 % of control | [11] 93 % of control | [12] 104 % of control

O=C(/C=C/c1ccccc1)Nc1ccccc1Cl
inactive: [13] 105 % of control | [14] 98 % of control | [15] 98 % of control

O=C(CC([Se]c1ccccc1)c1ccccc1)c1ccccc1 (stereo not drawn)
inactive: dose: 50.0 mg/kg/injection, schedule: Q01DX009 (ip), vehicle: saline sonified 102 % of control | dose: 100.0 mg/kg/injection, schedule: Q01DX009 (ip), vehicle: saline sonified 102 % of control | [10] 105 % of control | dose: 200.0 mg/kg/injection, schedule: Q01DX009 (ip), vehicle: saline sonified 105 % of control | [11] 104 % of control

O=C(c1ccccc1Br)C(Br)C(Br)c1ccccc1 (stereo not drawn)
inactive: [10] 103 % of control | [11] 111 % of control | [12] 100 % of control

CCOC(=O)c1cn[nH]c1/N=C/N(C)C
inactive: [7] 98 % of control | [8] 104 % of control | [9] 106 % of control

CCOC(=O)c1cc(=O)c2ccccc2[nH]1
inactive: dose: 50.0 mg/kg/injection, schedule: Q01DX001 (ip), vehicle: saline with Tween-80 93 % of control | [7] 98 % of control | [8] 90 % of control

C/C=C/C=C/C(=O)n1nnn(/C=C/C=C/C)c1=O
inactive: dose: 50.0 mg/kg/injection, schedule: Q04DX002 (ip), vehicle: saline with Tween-80 98 % of control | [13] 91 % of control | [14] 95 % of control | [15] 98 % of control

Oc1ccccc1/C=N/c1nc2ccc(Cl)cc2s1.Oc1ccccc1/C=N/c1nc2ccc(Cl)cc2s1.[Zn]
inactive: dose: 25.0 mg/kg/injection, schedule: Q01DX001 (ip), vehicle: saline 96 % of control | dose: 50.0 mg/kg/injection, schedule: Q01DX001 (ip), vehicle: saline 91 % of control | [16] 87 % of control

CCCCCCCCCCCCCCCCOC(=O)Nc1ccc(S(=O)(=O)N(CCC)CCC)cc1
inactive: [16] 94 % of control | dose: 200.0 mg/kg/injection, schedule: Q01DX001 (ip), vehicle: saline 96 % of control | dose: 400.0 mg/kg/injection, schedule: Q01DX001 (ip), vehicle: saline 92 % of control

CCOC(=O)c1cc2c3n(c1=O)CCCC3C(c1ccc(Cl)c(Cl)c1)OC2=O (stereo not drawn)
inactive: [4] 98 % of control | [5] 101 % of control | [6] 104 % of control

CC(CN)OCc1ccccc1 (stereo not drawn)
inactive: dose: 25.0 mg/kg/injection, schedule: Q04DX003 (ip), vehicle: saline 98 % of control | dose: 50.0 mg/kg/injection, schedule: Q04DX003 (ip), vehicle: saline 101 % of control | [4] 101 % of control
